One assay relates to Colo320 cells. Nature of the assay: Apoptosis assay, Annexin-V-FITC/PI flow cytometry. The note with it: 3 h induction. As to the method: An apoptosis assay was performed by flow cytometry via the analysis of multidrug-resistant Colo320 cells stained with Annexin-V-FITC and propidium iodide (PI).
Colo320 cells were treated at the indicated concentration of the compounds. The dual parametric dot plots combining Annexin-V (FL1) and PI (FL3) fluorescence show the viable cell population in the lower left quadrant Annexin-V–/PI– (Q4), the early apoptotic cells in the lower right quadrant Annexin-V+/PI– (Q3), and the late apoptotic and necrotic cells in the upper right quadrant Annexin-V+/PI+ (Q2).
The assay was carried out for selected compounds using an Annexin V-FITC Apoptosis Detection Kit (cat. no. APOAF-50TST) from Sigma according to the manufacturer’s instructions. The concentration of the Colo320 cell suspension was adjusted to approximately 0.5 × 10^6 cells/mL in an RPMI 1640 medium, and the cell suspension was distributed in 1 mL of aliquots into a 24-well plate and then incubated overnight at 37 °C and 5% CO2. On the following day, the medium was removed and replaced by 1 mL of RPMI medium containing the compounds except the control samples. […] After the incubation period, the samples were washed with PBS and fresh RPMI 1640 medium was added to the samples. The cells were incubated overnight at 37 °C and 5% CO2. The next day, 200 μL of 0.25% Trypsin (Trypsin-Versen) was added to the samples until cells appeared detached followed by the addition of 400 μL of RPMI 1640 medium supplemented with 10% bovine serum. The cells were collected in Eppendorf tubes and centrifuged at 2000g for 2 min. The harvested cells were resuspended in fresh serum-free RPMI 1640 culture medium. After this step, the apoptosis assay was carried out according to the instructions of the manufacturer. The fluorescence was analyzed immediately using a ParTec CyFlow flow cytometer (Partec GmbH, Münster, Germany).
• Apoptosis and DNA binding studies […]

For assay [1], the system named is HCT-116 colon carcinoma cells. As to the kind of experiment: MTT assay, 96 h. In kind it is cell-based, human. The text has this: (§1) The oncosuppressor protein p53 controls the cellular response to DNA strand breaks induced by cytotoxic drugs or by radiation.[58] The p53 protein may enhance cell chemosensitivity by promoting apoptosis via different mechanisms including activation of proapoptotic genes such as bax and repression of antiapoptotic genes such as bcl-2 or in contrast increase chemoresistance by promoting p21-mediated and p21-independent growth arrest and DNA repair and by activation of antiapoptotic genes such as bcl-x. There is strong evidence that the modulation of drug sensitivity by p53 may be both drug- and cell type-specific.[59] […] Accordingly, essential differences in chemosensitivity were observed between cells with wild-type p53 gene and cells with knocked out p53 gene by homologous recombination.[60]
(§2) Human colonic adenocarcinoma cell lines Colo 205 doxorubicin-sensitive (ATCC-CCL-222) and Colo 320/MDR-LRP multidrug resistant over-expressing ABCB1 (MDR1)-LRP (ATCC-CCL-220.1) were purchased from LGC Promochem, Teddington, UK. The cells were cultured in an RPMI 1640 medium supplemented with 10% heat-inactivated fetal bovine serum, 2 mM L-glutamine, 1 mM Na-pyruvate, and 10 mM HEPES. The semi-adherent human colon cancer cells were detached with Trypsin-Versene (EDTA) solution for 5 min at 37 °C. An MRC-5 human embryonal lung fibroblast cell line (ATCC CCL-171) was purchased from LGC Promochem, Teddington, UK. The cells were cultured in Eagle’s minimal essential medium (EMEM, containing 4.5 g L^–1 glucose) supplemented with a non-essential amino acid mixture, a selection of vitamins, and 10% heat-inactivated fetal bovine serum. The HCT-116 colon carcinoma cells and isogenic p53-knock-out subline were a gift of Prof. Bert Vogelstein from The Johns Hopkins Oncology Center. Cells were cultured in McCoy’s 5A medium supplemented with 10% heat-inactivated fetal bovine serum and 4 mM L-glutamine. All cell lines were incubated at 37 °C, in a 5% CO2, 95% air atmosphere.
(§3) MRC-5 non-cancerous human embryonic lung fibroblast and human colonic adeno-carcinoma cell lines (doxorubicin-sensitive Colo 205 and multidrug resistant Colo 320 colonic adenocarcinoma cells) were used to determine the effect of compounds on cell growth. The effects of increasing concentrations of compounds on cell growth were tested in 96-well flat-bottomed microtiter plates. The compounds were dissolved in DMSO and stock solutions of 10 mM were prepared. These were further diluted in the appropriate cell culture medium by twofold serial dilution starting from 100 or 10 μM for the compounds. The adherent human embryonal lung fibroblast cells were cultured in 96-well flat-bottomed microtiter plates using EMEM supplemented with 10% heat-inactivated fetal bovine serum. The density of the cells was adjusted to 1 × 10^4 cells in 100 μL per well, the cells were seeded for 24 h at 37 °C, 5% CO2, then the medium was removed from the plates containing the cells, and the dilutions of compounds previously made in a separate plate were added to the cells in 200 μL. In the case of the colonic adenocarcinoma cells, the twofold serial dilutions of compounds were prepared in 100 μL of RPMI 1640, horizontally. The semi-adherent colonic adenocarcinoma cells were treated with Trypsin-Versene (EDTA) solution. They were adjusted to a density of 1 × 10^4 cells in 100 μL of RPMI 1640 medium and were added to each well, with the exception of the medium control wells. […]
(Tetrazolium dyes change colour on reduction, which living cells bring about.)

Assay [2] relates to HCT-116 isogenic p53-knock-out subline. Nature of the assay: MTT assay, 96 h. In kind it is cell-based, human. To be noted: read-out: IC50 HCT-116p53ko, mean.
From the text: as §1, §2, §3

One may read the IC50 as the midpoint of a concentration-inhibition curve.

Molecules are shown by their SMILES.

`N.N.[Cl][Pt][Cl]` [cisplatin, reference compound]: in the assay on Colo320 cells (15 µM), the “Cell death % Q1” value turned out to be 1.64%; the “Early apoptosis % Q3” value is 1.68%; the “Late apoptosis and necrosis % Q2” value is reported as 2.24%. Moreover, in the assay on Colo320 cells (30 µM), the “Cell death % Q1” value is 0.79%; the “Early apoptosis % Q3” value is on record as 4.90%; the “Late apoptosis and necrosis % Q2” value is recorded as 4.07%. For the same compound, the IC50 in assay [1] is 780 nM. Also, the IC50 in assay [2] was 1700 nM.

The record behind these values is article PMC8842277, “Highly Antiproliferative Latonduine and Indolo[2,3-c]quinoline Derivatives: Complex Formation with Copper(II) Markedly Changes the Kinase Inhibitory Profile” (Journal of Medicinal Chemistry, 2022).
